Laboratory results from patent US6352982B1, “4,1-benzoxazepines, their analogues, and their use as somatostatin agonists” (Takeda Chemical Industries, Ltd., priority 1997, dated 2002).
Counter-ions that a name gives are not always drawn.

Key:
Format in all cases: cell-based
[1] = molecular target: T1, human somatostatin receptor SSTR3 (Homo sapiens, UniProt P32745); assay: Inhibition of forskolin-stimulated accumulation of cAMP in receptor expression CHO cells; settings: forskolin 10 μM, 37° C. for 30 minutes, read-out: Inhibitory effect on forskolin-stimulated accumulation of cAMP (ED50 value) SSTR3
T1 construct: expressed in transfected cells; host or cells: CHO (dhfr-) cells, strain SSTR3-15-19
Procedure: (§1) For measurement of the accumulated intracellular adenosine 3′,5′-monophosphate (cAMP), the human somatostatin receptor expression cell strains, SSTR2-HS5-9, SSTR-3-15-19, SSTR4-1-2 and SSTR5-32-4, mentioned in Reference Examples 2-3, 3-3,4-3 and 5-3, respectively, were proliferated in 24-well plate until they were confluent. Said cells were washed twice with 1 ml of Medium A [Dulbecco's Modified Eagle Medium (DMEM), 20 mM 2-(4-(2-hydroxyethyl)-1-piperazinyl]ethanesulfonic acid (HEPES) (pH 7.5), 0.2% bovine serum albumin and 0.2 mM 3-isobutyl-1-methylxanthine (IBMX)]. The medium A was placed in wells each in quantity of 400 μl and incubated at 37° C. for an hour. A solution of the compounds of Example 5 and Example 102 (solution obtained by diluting with Medium A to the 10-fold concentration of the final concentration) and a forskolin solution (final concentration 10 μM) were placed in wells each in quantities of 50 μl and 50 μl, respectively, and incubated at 37° C. for 30 minutes. The cells were washed twice with 1 ml of Medium A. Medium A (500 μl) and 100 μl of a 20% aqueous perchloric acid solution were placed in each well and left standing for 20 minutes at 4° C. to lyse the cells. The lyzate was placed in an Eppendorf's tube and centrifuged (15.000 rpm, for 10 minutes). The supernatant was placed in another Eppendorf's tube in quantity of 500 μl and neutralized with 60 mM of a HEPES aqueous solution containing 1.5 M of potassium chloride. The content of cAMP contained in this extract was determined by the Amersham kit (cAMP EIA system).

[2] = molecular target: T2, human somatostatin receptor SSTR2 (Homo sapiens, UniProt P30874); assay: as above; settings: forskolin 10 μM, 37° C. for 30 minutes, read-out: Inhibitory effect on forskolin-stimulated accumulation of cAMP (ED50 value) SSTR2
T2 construct: expressed in transfected cells; host or cells: CHO (dhfr-) cells, strain SSTR2-HS5-9
Procedure: as §1

[3] = molecular target: T3, human somatostatin receptor SSTR5 (Homo sapiens, UniProt P35346); assay: as above; settings: forskolin 10 μM, 37° C. for 30 minutes, read-out: Inhibitory effect on forskolin-stimulated accumulation of cAMP (ED50 value) SSTR5
T3 construct: expressed in transfected cells; host or cells: CHO (dhfr-) cells, strain SSTR5-3-2-4 (also printed SSTR5-32-4)
Procedure: as §1

[4] = molecular target: T4, human somatostatin receptor SSTR4 (Homo sapiens, UniProt P31391); assay: as above; settings: forskolin 10 μM, 37° C. for 30 minutes, read-out: Inhibitory effect on forskolin-stimulated accumulation of cAMP (ED50 value) SSTR4
T4 construct: expressed in transfected cells; host or cells: CHO (dhfr-) cells, strain SSTR4-1-2
Procedure: as §1

[5] = test system: primary cell culture of the rat anterior pituitary; assay: Inhibition of growth hormone (GH) secretion from primary cell culture; settings: GHRH-stimulated, 37° C. for 3 hours; for EC50: Rattus norvegicus, GH by RIA, read-out: ED50 values, inhibition of GH secretion
Procedure: The anterior pituitaries were excised from the decapitated skull of 40 unanesthetized male rats of 8 weeks of age. The anterior pituitaries were placed in a laboratory dish containing the buffer A (consisting of 137 mM of sodium chloride, 5 mM of potassium chloride, 0.7 mM of disodium hydrogen phosphate, 25 mM of 2-[4-(2-hydroxyethyl)-1-piperazinyl]ethane sulfonic acid (HEPES) (pH 7.3), and 50 μg/ml of gentamicin sulfate] and washed once with the buffer A. Each anterior pituitary was cut into 4 pieces by scissors and washed twice again. The pieces of the anterior pituitaries were incubated in 30 ml of Enzyme Solution I [buffer A solution containing 0.4% of collagenase (Boehringer Mannheim), 0.4% of bovine serum albumin, 10 μg/ml of deoxyribonuclease (Sigma) and 0.2% of glucose] at 37° C. under shaking for 1 hour. After dispersion of the pieces of the anterior pituitaries by a Komagome pipette, the solution was centrifuged (480×g, for 6 minutes). The supernatant was discarded. The sediment was suspended in 30 ml of Enzyme Solution II [buffer A solution containing 0.25% of pancreatin (Sigma)] and incubated at 37° C. under shaking for 8 minutes. After adding 2 ml of fetal calf serum, the cell suspension was centrifuged (480×g, for 6 minutes) again and the supernatant was discarded. The sediment was suspended in 10 ml of Medium I [Dulbecco modified Eagle's Medium (DMEM) containing 10% of fetal calf serum, 20 mM of HEPES (pH 7.3), 50 U/ml of penicillin G and 50 μg/ml of streptomycin] and filtered through nylon mesh. The cells thus obtained were washed twice with 10 ml of Medium I. The number of the cells was counted, and the cells were suspended in Medium I in the cell density of 1.5×10^5 cells/ml. The aliquots of 1 ml each of the cell suspension were placed in the wells of 24-well plate and incubated at 37° C. for 3 days in the carbon dioxide incubator under 5% carbon dioxide-95% air environment. The cells were washed twice with 1 ml of Medium II (Medium I containing 0.2% bovine serum albumin instead of 10% fetal calf serum) and then incubated in 1 ml of Medium II for 1 hour. The supernatant was discarded. To each well of the 24-well plate 0.8 ml each of Medium II was added, and 0.1 ml of Medium II containing somatostatin-14 (SS-14) or the compound of Example 5 or the compound of Example 102 in the concentration of 10 times the final concentration and 0.1 ml of 10 nM growth hormone releasing hormone (GHRH) were added thereto. After incubation at 37° C. for 3 hours, 0.6 ml of the supernatant of the each well was collected to obtain a supernatant solution by the centrifugation on 1,000×g for 8 minutes. GH concentrations in the supernatant were determined by radioimmunoassay (RIA) kit of Amersham.

T4 sequence (P31391 whole entry): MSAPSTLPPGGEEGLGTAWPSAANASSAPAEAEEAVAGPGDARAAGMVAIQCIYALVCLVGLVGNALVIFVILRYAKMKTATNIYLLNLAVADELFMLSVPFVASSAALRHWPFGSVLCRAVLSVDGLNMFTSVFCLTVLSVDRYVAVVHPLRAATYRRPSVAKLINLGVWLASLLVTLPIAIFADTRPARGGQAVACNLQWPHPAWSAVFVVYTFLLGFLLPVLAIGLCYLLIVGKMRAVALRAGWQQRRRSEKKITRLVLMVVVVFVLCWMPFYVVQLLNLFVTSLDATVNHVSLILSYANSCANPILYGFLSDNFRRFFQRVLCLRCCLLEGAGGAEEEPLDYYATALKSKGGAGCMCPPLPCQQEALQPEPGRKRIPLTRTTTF
T2 sequence (P30874 whole entry): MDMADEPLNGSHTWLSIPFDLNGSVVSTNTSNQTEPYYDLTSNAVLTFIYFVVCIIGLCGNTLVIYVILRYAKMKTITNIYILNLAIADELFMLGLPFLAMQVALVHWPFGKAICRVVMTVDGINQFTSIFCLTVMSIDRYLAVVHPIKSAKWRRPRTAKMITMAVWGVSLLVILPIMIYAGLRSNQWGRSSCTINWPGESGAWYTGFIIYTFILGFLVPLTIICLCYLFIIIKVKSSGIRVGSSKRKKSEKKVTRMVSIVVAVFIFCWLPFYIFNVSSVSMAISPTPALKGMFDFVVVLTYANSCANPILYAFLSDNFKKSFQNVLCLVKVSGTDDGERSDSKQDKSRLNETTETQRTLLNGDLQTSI
T3 sequence (P35346 whole entry): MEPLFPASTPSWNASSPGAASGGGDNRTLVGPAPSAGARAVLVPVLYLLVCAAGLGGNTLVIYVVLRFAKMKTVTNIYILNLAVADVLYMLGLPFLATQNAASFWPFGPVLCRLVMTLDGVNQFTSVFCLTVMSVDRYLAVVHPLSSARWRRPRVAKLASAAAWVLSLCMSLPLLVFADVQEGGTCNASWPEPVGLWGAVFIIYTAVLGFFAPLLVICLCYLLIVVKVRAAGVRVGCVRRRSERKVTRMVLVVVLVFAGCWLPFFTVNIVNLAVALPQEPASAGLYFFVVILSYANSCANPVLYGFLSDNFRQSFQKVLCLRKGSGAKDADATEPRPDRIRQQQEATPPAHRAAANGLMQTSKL
T1 sequence (P32745 whole entry): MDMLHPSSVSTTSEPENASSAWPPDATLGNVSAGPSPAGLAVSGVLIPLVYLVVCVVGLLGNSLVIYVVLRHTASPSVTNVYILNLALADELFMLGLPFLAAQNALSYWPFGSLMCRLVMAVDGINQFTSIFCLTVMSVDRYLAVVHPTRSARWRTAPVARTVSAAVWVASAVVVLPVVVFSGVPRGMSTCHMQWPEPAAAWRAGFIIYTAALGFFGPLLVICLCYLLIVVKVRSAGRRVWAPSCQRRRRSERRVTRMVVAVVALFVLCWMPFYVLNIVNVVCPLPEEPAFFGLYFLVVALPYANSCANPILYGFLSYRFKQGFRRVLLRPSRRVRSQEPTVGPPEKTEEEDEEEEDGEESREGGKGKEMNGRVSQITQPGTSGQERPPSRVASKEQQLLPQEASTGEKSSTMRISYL

| SMILES | EC50 [1] | EC50 [2] | EC50 [3] | EC50 [4] | GH secretion from the primary cell culture of rat anterior pituitary [5] | EC50 [5] |
| --- | --- | --- | --- | --- | --- | --- |
| NCc1cccc(C2OC(CC(=O)NCc3ccccc3F)C(=O)N(Cc3ccc(-c4ccccc4)cc3)c3ccc(Cl)cc32)c1 (stereo not drawn) [Example 5, 3,5-Trans-N-(2-fluorobenzyl)-5-(3-aminomethylphenyl)-1-(4-biphenylmethyl)-7-chloro-2-oxo-1,2,3,5-tetrahydro-4,1-benzoxazepine-3-acetamide•monohydrochloride] | 2 nM | 300 nM | 0.7 nM | 200 nM | inhibited dose-dependently | 8 nM |
| NCc1cccc(C2OC(CC(=O)NCc3ccccc3F)C(=O)N(Cc3ccc(O)cc3)c3ccc(Cl)cc32)c1 (stereo not drawn) [Example 102, 3,5-Trans-N-(2-fluorobenzyl)-5-(3-aminomethylphenyl)-7-chloro-1-(4-hydroxybenzyl)-2-oxo-1,2,3,5-tetrahydro-4,1-benzoxazepine-3-acetamide•monohydrochloride] | 0.3 nM | 200 nM | 0.3 nM | 100 nM | inhibited dose-dependently | 10 nM |
